In assay [1] the test system is PDE peak B (novel cGMP-specific PDE) from SW-480 cells. Kind of assay: cGMP hydrolysis by PDE peak B. The class given is biochemical, human. Conditions: for IC50: cGMP hydrolysis, 0.25 μM 3H-cGMP substrate; for Km: peak B.
Assay [2] has as its target T1, PDE peak A (PDE5) from SW-480 cells (Homo sapiens, UniProt O76074).
T1 construct: SW-480 cells are collected and homogenized; The homogenate is centrifuged, and the supernatant is loaded onto a DEAE-Trisacryl M column; endogenous in cells; host or cells: SW-480 human colon carcinoma cells, DEAE-Trisacryl M fraction peak A
Kind of assay: cGMP hydrolysis by PDE peak A. The class given is biochemical.

The next assay deals with HT-29 cells. Kind of assay: Apoptosis and necrosis by morphology (acridine orange/ethidium bromide). The class given is cell-based. The note with it: for % Apoptosis / % Necrosis: HT-29 cells treated for 6 days. Here is the method: In one type of apoptosis assay, suspected neoplastic cells are removed from a patient. The cells are then grown in culture in the presence or absence of a cGMP-specific PDE inhibitor. Apoptotic cells are measured by combining both the attached and “floating” compartments of the cultures. The protocol for treating tumor cell cultures with PDE inhibitors and related compounds to obtain a significant amount of apoptosis has been described in the literature. (See, Piazza, G. A., et al., Cancer Research, 55:3110-16, 1995, which is incorporated herein by reference). The novel features of this assay include collecting both floating and attached cells, identification of the optimal treatment times and dose range for observing apoptosis, and identification of optimal cell culture conditions.
Following treatment of neoplastic and normal cells with a test compound, cultures can be assayed for apoptosis and necrosis by fluorescent microscopy following labeling with acridine orange and ethidium bromide. The method for measuring apoptotic cell number has previously been described by Duke & Cohen, “Morphological And Biochemical Assays Of Apoptosis,” Current Protocols In Immunology, Coligan et al., eds. 3.17.1-3.17.16 (1992, which is incorporated herein by reference).
For example, floating and attached cells are collected, and aliquots of cells are centrifuged. The cell pellet is then resuspended in media and a dye mixture containing acridine orange and ethidium bromide. The mixture is then examined microscopically for morphological features of apoptosis.
Apoptotic and necrotic cell death was determined as previously described (Duke and Cohen, In: Current Protocols in Immunology, 3.17.1-3.17.16, New York, John Wiley and Sons, 1992). […] All data were collected from the same experiment.
The diagnostic method of this invention is used to determine whether a particular neoplasia is sensitive to treatment with a cGMP-specific PDE inhibitor. The apoptosis inducing activity for a series of phosphodiesterase inhibitors, specific for different PDEs, was determined. HT-29 cells were treated for 6 days with various inhibitors of phosphodiesterase. Apoptosis and necrosis were determined morphologically after acridine orange and ethidium bromide labeling in accordance with the assay described, supra.

A further assay relates to neoplastic cells. In words: Apoptosis induction and growth inhibition in neoplastic cells (words only). The class given is cell-based.
Assay [3] concerns colonic polyps of familial polyposis patients. In words: Apoptosis clinical study, apoptotic labeling index (ALI) in biopsies. The class given is in vivo, human. Here is the method:
Increases in apoptosis are indicative that the neoplasia in question is sensitive to treatment with a cGMP-specific PDE inhibitor, such as sulindac sulfone (aposulind). A human in vivo aposulind-induced selective induction of apoptosis in colonic polyps is described below. Six familial polyposis patients per group were administered one of three doses of aposulind (200 mg, 400 mg which was later lowered to 200 mg for most patients in the group, or 300 mg) twice daily (BID).
Biopsies are taken from patients and used to investigate possible cellular mechanisms of apoptosis. Biopsy samples are placed in transfer media (500 ml RPMI1640 containing 50 ml fetal calf serum, 5×10^8 units penicillin G, and 5×10^6 μg streptomycin) and kept on ice for less than 1 hour until transfer to the pathology department. Upon receipt in the pathology department, samples are removed from the transfer media and oriented mucosa up, serosa down on filter paper, placed between biopsy sponges in a tissue cassette, and fixed in 10% neutral buffered formalin for 24 hours. Samples are then transferred to 70% ethanol and embedded in paraffin. Samples are oriented perpendicularly to the tissue cassette during final orientation in paraffin for longitudinal crypt exposure and easy visualization of mucosa and the relation to the basement membrane.
Four micron sections of tissue were cut, mounted, deparaffinized, rehydrated in graded alcohol, and treated with pepsin (5 mg/ml) to digest protein in the tissue. Sections were washed and treated with 2% hydrogen peroxide (H2O2) in PBS to quench endogenous peroxidase and washed again. Tissue samples were then circled with a PAP pen (Research Products Int., 800-323-9814) to produce a hydrophobic barrier to concentrate reagents on the sample. If a DNase positive control is desired, the sample is treated with DNase for 10 minutes, equilibrated in transferase buffer, and treated using 100 enzyme units/ml terminal transferase enzyme (TdT) at 37° C. for 60 minutes. Samples are washed and anti-digoxigenin-peroxidase is applied. Each sample is then covered with a coverslip and left in a humid box at room temperature for 30 minutes. After washing three times peroxidase is developed using DAB for nine minutes. After sufficient color development, the slides are washed and counterstained with hemotoxylin and eosin.
Apoptotic and nonapoptotic cells are counted on the basis of staining and morphology. An apoptotic labeling index (ALI) is calculated by dividing the total number of apoptotic cells counted by the total number of epithelial cells counted and expressing the quotient as a percentage.

In assay [4] the target is T2, GST-PDE5 binding domain fusion protein (Homo sapiens, UniProt O76074).
T2 construct: made in house; host or cells: E. coli BL21
Kind of assay: Cyclic GMP binding assay, 3H-cGMP saturation binding. Conditions: read-out: Km for cGMP; 3H-cGMP saturation binding curve at 25° C. Here is the method:
The assay was performed in a total volume of 100 μL containing 5 mM sodium phosphate buffer (pH 6.8), 1 mM EDTA and 0.25 mg/ml BSA and H^3-cGMP (5.8 Ci/mmol, NEN). The purified soluble GST-PDE5 binding domain fusion protein (5 to 50 μg/assay) was incubated at […] for one hour and then transferred to a Brandel MB-24 Cell Harvester with GF/B as the filter membrane. Next the fusion protein was washed twice with 10 mL of cold 5 mM potassium buffer, pH 6.8. The membranes were cut out and transferred to scintillation vials, then 1 ml of H2O and 6 ml of Ready Safe liquid scintillation cocktail as added and the samples were counted on a Beckman LS 6500 scintillation counter. A ^3H-cGMP saturation binding curve at 25° C. was generated.

For another assay, the target named is PDE5 cGMP-binding sites (Bos taurus, UniProt Q28156). Conditions: bovine PDE5; read-out: Kd of high affinity binding site; cited from earlier work.

“Also recorded” adds a separate entry of the source. Where two headings read alike, the source gives them in different places.

One may read the IC50 as the concentration that gives 50% inhibition. A higher IC50 goes with weaker potency in that assay. What is called Km is the substrate concentration at which the rate is half of its maximum. What is called Kd is the concentration at which binding is half-saturated.

On to `CCCCCC[C@@H]([C@@H](C)O)n1cnc2c(N)ncnc21` (racemic) [EHNA], for which the IC50 in assay [1] was 3.7 µM; in assay [2] (cGMP hydrolysis, 0.25 μM 3H-cGMP substrate), greater than 100 µM.

Take `COc1nc2c([nH]1)c(=O)n(C)c(=O)n2CC(C)C` [8-methoxy-IBMX]: in the assay with HT-29 cells, the “% Apoptosis” value was determined as 2% and the “% Necrosis” value is listed as 1%.

In the case of `O=C([O-])C1CCN(c2nc(NCc3ccc4c(c3)OCO4)c3cc(Cl)ccc3n2)CC1.[Na+]` [Compound E4021], in the assay on neoplastic cells, the “Apoptosis induction in neoplastic cells (in words)” value (from here on “Apoptosis induction”) was “none of the three; also recorded: do not have significant apoptosis-inducing or growth-inhibiting properties” and the “Growth inhibition of neoplastic cells (in words)” value (from here on “Growth inhibition”) was “none of the three; also recorded: do not have significant apoptosis-inducing or growth-inhibiting properties”. Further, the “Sensitivity of the new cGMP-PDE to inhibition (in words)” value (“Sensitivity … to inhibition (in words)” below) in assay [1] was “relatively insensitive”.

Consider `COc1cc(/C=C2/C(C)=C(CC(=O)NCc3ccccc3)c3cc(F)ccc32)cc(OC)c1OC` [Compound E, [(Z)-5-fluoro-2-methyl-1-(3,4,5-trimethoxybenzylidene)-3-indenylacetamide, N-benzyl]], for which, in the assay with neoplastic cells, the “Apoptosis induction” value was “induce apoptosis in neoplastic cells” and the “Growth inhibition” value is recorded as “precisely the opposite”. Further, in assay [1], the “Mode of inhibition of cGMP hydrolysis, peak B” value was “competitively inhibit” and the IC50 is 0.37 µM. For the same molecule, the “Mode of inhibition of cGMP hydrolysis, peak A” value in assay [2] was “competitively inhibit”. The “Ratio (IC50 PeakA/Peak B)” value in assay [2] (cGMP hydrolysis) is listed as 1.0.

Regarding `CC1=C(CC(=O)O)c2cc(F)ccc2/C1=C\c1ccc(S(C)(=O)=O)cc1` [Exisulind, (Z)-5-fluoro-2-methyl-1-[[4-(methylsulfonyl)phenyl]methylene]indene-3-yl acetic acid], the “Change in ALI after treatment” value in assay [3] (200 mg BID group) is “did not demonstrate any elevation”. Further, the “Mean Polyp ALI” value is reported as 4.05% in assay [3] (200 mg BID, Month 1); 4.52% in assay [3] (200 mg BID, Month 4); 5.90% in assay [3] (200 mg BID, Month 6); 4.90% in assay [3] (300 mg BID, Month 1); 15.63% in assay [3] (300 mg BID, Month 6); 10.98% in assay [3] (400/200 mg BID, Month 1). Moreover, the “Mean Polyp ALI” value in assay [3] (400/200 mg BID, Month 4) is listed as 5.51%; in assay [3] (400/200 mg BID, Month 6), 5.10%. Besides, in assay [3] (300 mg BID, six months), the “Change in ALI of polyps after treatment” value is “two fold increase”. The “Change in ALI of dysplastic tissue after treatment” value in assay [3] (400/200 mg BID group while uniformly dosed at 400 mg BID) is “two-fold elevation”. In addition, the “Polyp size and number” value in assay [3] (familial polyposis patients) is “diminution of polyp size and decrease in polyp number”. The “Change in normal mucosa ALI versus baseline ALI” value in assay [3] (normal mucosa, any treatment group, over time) is recorded as “no significant change”. Besides, the “Apoptosis levels in regressing polyps” value in assay [3] (over six months of treatment) was “doubled”. The “Apoptotic and necrotic cell death (FIG. 1, in words)” value with HT-29 cells (HT-29 cells treated for six days) is recorded as “capable of causing apoptotic cell death without inducing neoplastic cell necrosis”.

Consider `CC(C)Cn1c(=O)n(C)c(=O)c2[nH]cnc21` [IBMX], for which, in the assay on HT-29 cells, the “% Apoptosis” value came to 4% and the “% Necrosis” value was 13%.

With `CC1(C)C(=O)Nc2ccc(C3=NNC(=O)CC3)cc21` [Indolidan], in assay [1], the “Sensitivity … to inhibition (in words)” value is “relatively insensitive” and the IC50 was greater than 100 µM. In assay [2] (cGMP hydrolysis), the “Ratio (IC50 PeakA/Peak B)” value was less than 0.31.

Regarding `Clc1cccc(Nc2nnc(-c3ccccc3)c3ccccc23)c1` [MY5445], in the assay on HT-29 cells, the “% Apoptosis” value is 80% and the “% Necrosis” value turned out to be 5%.

For `CCCCOc1cc(CC2CNC(=O)N2)ccc1OC` (stereo not drawn) [RO-20-1724], in the assay with HT-29 cells, the “% Apoptosis” value was 11% and the “% Necrosis” value is given as 2%.

With `COc1ccc(C2CNC(=O)C2)cc1OC1CCCC1` (stereo not drawn) [Rolipram], in assay [1], the “Sensitivity … to inhibition (in words)” value is “relatively insensitive” and the half-inhibitory concentration (IC50) is greater than 100 µM.

Turning to `CCCc1nn(C)c2c(=O)[nH]c(-c3cc(S(=O)(=O)N4CCN(C)CC4)ccc3OCC)nc12` [Sildenafil], in the assay on neoplastic cells, the “Apoptosis induction” value is reported as “none of the three; also recorded: do not have significant apoptosis-inducing or growth-inhibiting properties” and the “Growth inhibition” value was “none of the three; also recorded: do not have significant apoptosis-inducing or growth-inhibiting properties”. In assay [2], the “Inhibition of peak A activity (in words)” value is “inhibited activity of peak A”.

In the case of `CCOC(=O)C1=C[C@]2(CC)CCCN3CCc4c(n1c1ccccc41)[C@@H]32` [Vinpocetine], in assay [1], the “Sensitivity … to inhibition (in words)” value is given as “relatively insensitive” and the IC50 is greater than 100 µM.

As to `CCCOc1ccccc1-c1nc2nn[nH]c2c(=O)[nH]1` [Zaprinast], in the assay with neoplastic cells, the “Apoptosis induction” value is recorded as “do not have significant apoptosis-inducing or growth-inhibiting properties” and the “Growth inhibition” value is reported as “do not have significant apoptosis-inducing or growth-inhibiting properties”. For the same molecule, in the assay with neoplastic cells (listed as zaprinast), the “Apoptosis induction” value is listed as “none of the three” and the “Growth inhibition” value was “none of the three”. Besides, the “Mode of inhibition of cGMP hydrolysis, peak A” value in assay [2] is “competitive inhibition”.

For the molecule `Nc1nc2c(ncn2[C@@H]2O[C@@H]3COP(=O)(O)O[C@H]3[C@H]2O)c(=O)[nH]1` [cGMP], the Km in assay [4] is 0.41 ± 0.08 µM; in assay [1] (decreasing slope of Eadie-Hofstee plot, absence of cAMP, read-out: apparent Km), 8.4 µM; in assay [1] (increasing slope of Eadie-Hofstee plot, called submicromolar affinity, read-out: Km), less than 1 µM; in assay [2] (read-out: Km of the enzyme for cGMP, peak A), 1.07 µM. Further, the Kd on PDE5 cGMP-binding sites is 0.5 µM.

The values above are taken from US20030044861A1, “Method for diagnosing neoplasia” (priority 1998, published 2003).
